Article PMC3760497 (Nature, 2011)

Target: Get3 (Saccharomyces cerevisiae, UniProt Q12154, D57N)
Assay: mant-ATP chase titration, fluorescence
Format: binding
Settings: 1 uM Get3(D57N), 1 uM mant-ATP; 50 mM HEPES pH 7.5, 100 mM NaCl, 5 mM MgCl2; competitive with mant-ATP

Sequence of Get3 (Q12154 whole entry D57N): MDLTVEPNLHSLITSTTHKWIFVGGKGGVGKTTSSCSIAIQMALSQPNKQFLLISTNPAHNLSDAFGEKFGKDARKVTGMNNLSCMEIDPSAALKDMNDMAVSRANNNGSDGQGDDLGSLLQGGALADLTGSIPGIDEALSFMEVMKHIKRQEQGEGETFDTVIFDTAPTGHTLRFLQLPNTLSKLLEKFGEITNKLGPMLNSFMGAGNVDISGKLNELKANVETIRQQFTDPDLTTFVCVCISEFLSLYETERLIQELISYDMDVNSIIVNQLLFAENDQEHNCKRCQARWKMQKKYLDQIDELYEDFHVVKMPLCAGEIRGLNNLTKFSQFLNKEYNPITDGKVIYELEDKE

## Nc1ncnc2c1ncn2[C@@H]1O[C@H](COP(=O)(O)OP(=O)(O)O)[C@@H](O)[C@H]1O [ADP]
  dissociation constant: ADP (which binds weakly to substrate-free Get3; Sup. Fig. S18)
